Results as given in US20230167127A1, “COMPOUNDS AND THEIR USE IN THE TREATMENT OF BACTERIAL INFECTION” (Hoffmann-La Roche Inc., priority 2020, published 2023).
Counter-ions that a name gives are not always drawn.

Tested on: Escherichia coli ATCC 25922
Assay: 50% growth inhibitory concentration (IC50) determination, Iso-Sensitest broth dilution
Type: cell-based
Details: Escherichia coli, ATCC25922, 16 h, strain Escherichia coli ATCC 25922; 10-point broth dilution, optical density at 600 nm over 16 h; read-out: Escherichia coli growth inhibition IC50
In short: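 10-point twofold Iso-Sensitest broth dilution (e.g. 50 to 0.097 μM final) with DMSO stocks, incubated at 35±2° C. Growth followed by OD 600 nm every 20 min over 16 h; IC50 derived from growth inhibition during logarithmic phase.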

IC50 [µM]	SMILES
0.194	CNCCOc1nc(C)c2c(c1C)CC(CNCCC1CN(c3ccc4c(n3)NC(=O)CO4)C(=O)O1)C2 (stereo not shown) [Example 173, 6-[5-[2-[[1,4-dimethyl-3-[2-(methylamino)ethoxy]-6,7-dihydro-5H-cyclopenta[c]pyridin-6-yl]methylamino]ethyl]-2-oxo-1,3-oxazolidin-3-yl]-4H-pyrido[3,2-b][1,4]oxazin-3-one]
0.17	N#Cc1cccc2c1CC(NCC(O)CC1CN(c3ccc4c(n3)NC(=O)CO4)C(=O)O1)C2 (stereo not shown) [Example 238, 2-[[2-Hydroxy-3-[2-oxo-3-(3-oxo-4H-pyrido[3,2-b][1,4]oxazin-6-yl)-1,3-oxazolidin-5-yl]propyl]amino]-2,3-dihydro-1H-indene-4-carbonitrile hydrochloride]
0.311	O=C1COc2ncc(N3CC(CCNCC4Cc5cc(OCC(=O)NC6CC6)cc(F)c5C4)OC3=O)nc2N1 (stereo not shown) [Example 346, N-cyclopropyl-2-[[7-fluoro-2-[[2-[2-oxo-3-(3-oxo-4H-pyrazino[2,3-b][1,4]oxazin-6-yl)-1,3-oxazolidm-5-yl]ethylamino]methyl]-2,3-dihydro-1H-inden-5-yl]oxy]acetamide; formic acid]
< 0.0977	Cc1nc(OCC2(N)CC2)c(C#N)c2c1CC(CN1CCC3(CC1)CN(c1ccc4c(n1)NC(=O)CO4)C(=O)O3)C2 (stereo not shown) [Example 215, 3-[(1-aminocyclopropyl)methoxy]-1-methyl-6-[[2-oxo-3-(3-oxo-4H-pyrido[3,2-b][1,4]oxazin-6-yl)-1-oxa-3,8-diazaspiro[4.5]decan-8-yl]methyl]-6,7-dihydro-5H-cyclopenta[c]pyridine-4-carbonitrile]
0.123	NC1c2cccc(Cl)c2CC1CN1CC(C2CN(c3cnc4c(n3)NC(=O)CO4)C(=O)O2)C1 (racemic) [Example 205, 6-[5-[1-[(rac-1,2-trans-1-amino-4-chloro-2,3-dihydro-1H-inden-2-yl)methyl]azetidin-3-yl]-2-oxo-1,3-oxazolidin-3-yl]-4H-pyrazino[2,3-b][1,4]oxazin-3-one]
< 0.0977	CC(C)(N)COc1cc(F)c2c(c1)CC(CN1CCC3(CC1)CN(c1cnc4c(n1)NC(=O)CO4)C(=O)O3)C2 (single isomer, unassigned; enantiomer a) [Example 377, 6-[8-[[6-(2-Amino-2-methylpropoxy)-4-fluoro-2,3-dihydro-1H-inden-2-yl]methyl]-2-oxo-1-oxa-3,8-diazaspiro[4.5]decan-3-yl]-4H-pyrazino[2,3-b][1,4]oxazin-3-one; formic acid, Enantiomer A]
< 0.0977	CN1CCCC1COc1ccc2c(c1C#N)CC(CNCCC1CN(c3ccc4c(n3)NC(=O)CO4)C(=O)O1)C2 (stereo not shown) [Example 52, 5-[(1-methylpyrrolidin-2-yl)methoxy]-2-[[2-[2-oxo-3-(3-oxo-4H-pyrido[3,2-b][1,4]oxazin-6-yl)-1,3-oxazolidin-5-yl]ethylamino]methyl]-2,3-dihydro-1H-indene-4-carbonitrile; formic acid]
< 0.0977	N#Cc1cc(OCC2(N)CC2)cc2c1CC(CCN1CC3(C1)CN(c1ccc4c(n1)NC(=O)CO4)C(=O)O3)C2 (stereo not shown) [Example 197, 6-((1-aminocyclopropyl)methoxy)-2-(2-(6-oxo-7-(3-oxo-3,4-dihydro-2H-pyrido[3,2-b][1,4]oxazin-6-yl)-5-oxa-2,7-diazaspiro[3.4]octan-2-yl)ethyl)-2,3-dihydro-1H-indene-4-carbonitrile]
0.193	COc1cc2c(c(Cl)n1)CC(CNCCC1CN(c3ccc4c(n3)NC(=O)CO4)C(=O)O1)C2 (stereo not shown) [Example 49, 6-[5-[2-[(1-chloro-3-methoxy-6,7-dihydro-5H-cyclopenta[c]pyridin-6-yl)methylamino]ethyl]-2-oxo-1,3-oxazolidin-3-yl]-4H-pyrido[3,2-b][1,4]oxazin-3-one]
4.14	Cc1nccc2c1CC(CNCCC1CN(c3ccc4c(n3)NC(=O)CO4)C(=O)O1)C2O (racemic) [Example 43, 6-[2-oxo-5-[2-[[rac-(5,6-trans)-5-hydroxy-1-methyl-6,7-dihydro-5H-cyclopenta[c]pyridin-6-yl]methylamino]ethyl]-1,3-oxazolidin-3-yl]-4H-pyrido[3,2-b][1,4]oxazin-3-one; formic acid]
< 0.0977	CC(C)(N)COc1cc(F)c2c(c1)CC(CNCC[C@H]1CN(c3cnc4c(n3)NC(=O)CO4)C(=O)O1)C2 (stereo partly drawn) [Example 341, 6-[(5S)-5-[2-[[6-(2-amino-2-methylpropoxy)-4-fluoro-2,3-dihydro-1H-inden-2-yl]methylamino]ethyl]-2-oxo-1,3-oxazolidin-3-yl]-4H-pyrazino[2,3-b][1,4]oxazin-3-one; formic acid]
< 0.0977	CNC(=O)COc1cc(F)c2c(c1)CC(CN1CCC3(CC1)CN(c1cnc4c(n1)NC(=O)CO4)C(=O)O3)C2 (stereo not shown) [Example 309, 2-[[7-fluoro-2-[[2-oxo-3-(3-oxo-4H-pyrazino[2,3-b][1,4]oxazin-6-yl)-1-oxa-3,8-diazaspiro[4.5]decan-8-yl]methyl]-2,3-dihydro-1H-inden-5-yl]oxy]-N-methylacetamide]
0.888	Cc1nnc(C)c2c1CC(CNCCC1CN(c3cnc4c(n3)NC(=O)CO4)C(=O)O1)C2 (stereo not shown) [Example 283, 6-[5-[2-[(1,4-dimethyl-6,7-dihydro-5H-cyclopenta[d]pyridazin-6-yl)methylamino]ethyl]-2-oxo-1,3-oxazolidin-3-yl]-4H-pyrazino[2,3-b][1,4]oxazin-3-one]
0.314	NC1(CCNCC2Cc3cccc(Cl)c3C2)CC(=O)N(c2ccc3c(n2)NC(=O)CO3)C1 (stereo not shown) [Example 140, 6-[4-amino-4-[2-[(4-chloro-2,3-dihydro-1H-inden-2-yl)methylamino]ethyl]-2-oxopyrrolidin-1-yl]-4H-pyrido[3,2-b][1,4]oxazin-3-one]
< 0.0977	NC1c2c(Cl)cccc2CC1CNCCC1CN(c2cnc3c(n2)NC(=O)CO3)C(=O)O1 (racemic) [Example 169, 6-[2-oxo-5-[2-[[rac-1,2-trans-1-amino-7-chloro-2,3-dihydro-1H-inden-2-yl]methylamino]ethyl]-1,3-oxazolidin-3-yl]-4H-pyrazino[2,3-b][1,4]oxazin-3-one]
0.145	Cc1ncc2c(c1F)CC(CNCC[C@@H]1CN(c3cnc4c(n3)NC(=O)CO4)C(=O)O1)C2 (stereo partly drawn) [Example 339, 6-[(5R)-5-[2-[(4-fluoro-3-methyl-6,7-dihydro-5H-cyclopenta[c]pyridin-6-yl)methylamino]ethyl]-2-oxo-1,3-oxazolidin-3-yl]-4H-pyrazino[2,3-b][1,4]oxazin-3-one]
< 0.0977	NC1(COc2cc(F)c3c(c2)CC(CNCCC2CN(c4ccc5c(n4)NC(=O)CO5)C(=O)O2)C3)CC1 (stereo not shown) [Example 160, 6-[5-[2-[[6-[(1-aminocyclopropyl)methoxy]-4-fluoro-2,3-dihydro-1H-inden-2-yl]methylamino]ethyl]-2-oxo-1,3-oxazolidin-3-yl]-4H-pyrido[3,2-b][1,4]oxazin-3-one]
< 0.0977	Cc1c(OCC2(N)CC2)ncc2c1CC(CNCCC1CN(c3ccc4c(n3)NC(=O)CO4)C(=O)O1)C2 (stereo not shown) [Example 217, 6-[5-[2-[[3-[(1-aminocyclopropyl)methoxy]-4-methyl-6,7-dihydro-5H-cyclopenta[c]pyridin-6-yl]methylamino]ethyl]-2-oxo-1,3-oxazolidin-3-yl]-4H-pyrido[3,2-b][1,4]oxazin-3-one]
0.259	COc1nc(C)c2c(c1C)CC(CNCCC1CN(c3ccc4c(n3)NC(=O)CO4)C(=O)O1)C2 (stereo not shown) [Example 106, 6-[5-[2-[(3-methoxy-1,4-dimethyl-6,7-dihydro-5H-cyclopenta[c]pyridin-6-yl)methylamino]ethyl]-2-oxo-1,3-oxazolidin-3-yl]-4H-pyrido[3,2-b][1,4]oxazin-3-one]
1.89	Cc1ncc(F)c2c1CC(CCNCC1(CCO)CN(c3ccc4c(n3)NC(=O)CO4)C(=O)O1)C2 (stereo not shown) [Example 278, 6-[5-[[2-(4-fluoro-1-methyl-6,7-dihydro-5H-cyclopenta[c]pyridin-6-yl)ethylamino]methyl]-5-(2-hydroxyethyl)-2-oxo-1,3-oxazolidin-3-yl]-4H-pyrido[3,2-b][1,4]oxazin-3-one]
0.199	N#Cc1cccc2c1CC(CNCCC1(CN)CN(c3ccc4c(n3)NC(=O)CO4)C(=O)O1)C2 (stereo not shown) [Example 243, 2-[[2-[5-(aminomethyl)-2-oxo-3-(3-oxo-4H-pyrido[3,2-b][1,4]oxazin-6-yl)-1,3-oxazolidin-5-yl]ethylamino]methyl]-2,3-dihydro-1H-indene-4-carbonitrile]
< 0.0977	N#Cc1cc(OCC2(N)CC2)cc2c1CC(CNCCC1CN(c3ccc4c(n3)NC(=O)CO4)C(=O)O1)C2 (stereo not shown) [Example 185, 6-[(1-aminocyclopropyl)methoxy]-2-[[2-[2-oxo-3-(3-oxo-4H-pyrido[3,2-b][1,4]oxazin-6-yl)-1,3-oxazolidin-5-yl]ethylamino]methyl]-2,3-dihydro-1H-indene-4-carbonitrile]
0.149	N#Cc1cccc2c1C(O)C(CNCCC1CN(c3ccc4c(n3)NC(=O)CS4)C(=O)O1)C2 (racemic) [Example 152, rac-2,3-trans-3-hydroxy-2-[[2-[2-oxo-3-(3-oxo-4H-pyrido[3,2-b][1,4]thiazin-6-yl)-1,3-oxazolidin-5-yl]ethylamino]methyl]-2,3-dihydro-1H-indene-4-carbonitrile; formic acid]
< 0.0977	Cc1nc(OCC2(N)CC2)c(C#N)c2c1CC(CNCCC1CN(c3ccc4c(n3)NC(=O)CO4)C(=O)O1)C2 (stereo not shown) [Example 214, 3-[(1-aminocyclopropyl)methoxy]-1-methyl-6-[[2-[2-oxo-3-(3-oxo-4H-pyrido[3,2-b][1,4]oxazin-6-yl)-1,3-oxazolidin-5-yl]ethylamino]methyl]-6,7-dihydro-5H-cyclopenta[c]pyridine-4-carbonitrile]

Same assay, conditions: strain Escherichia coli ATCC 25922; 10-point broth dilution, optical density at 600 nm over 16 h; read-out: Escherichia coli growth inhibition IC50

IC50 [µM]	SMILES
0.679	Cc1ncc(F)c2c1CC(CN1CCC3(CN(c4ccc5c(n4)NC(=O)CO5)C(=O)O3)C(CN)C1)C2 (racemic) [Example 251, 6-[rac-5,6-cis-6-(Aminomethyl)-8-[(4-fluoro-1-methyl-6,7-dihydro-5H-cyclopenta[c]pyridin-6-yl)methyl]-2-oxo-1-oxa-3,8-diazaspiro[4.5]decan-3-yl]-4H-pyrido[3,2-b][1,4]oxazin-3-one]
